Data: patent US8501732B2, “Aminomethyl quinolone compounds” (Hoffmann-La Roche Inc., priority 2011, dated 2013)
Counter-ions that a name gives are not always drawn. Like-named read-outs stand apart in the source and are kept apart here.

How the values were obtained:
[1] = system: phospho(Ser63)-c-jun in HK-2 cells; assay: Cell-Based Assay for JNK Inhibitors (in-cell ELISA, phospho(Ser63)-c-jun after TNFα); conditions: HK-2 cells (human proximal tubule cells), 60 minutes compound, then 10 ng/mL TNFα for 30 minutes
Protocol: Cell-Based Assay for JNK Inhibitors
The cell-based assay employed the in-cell ELISA method to determine the ability of compounds to prevent the generation of phospho(Ser63)-c-jun in HK-2 cells (human proximal tubule cells) in response to stimulation with tumor necrosis factor α (TNFα). In brief, for quantification of phospho(Ser63)-c-jun, the cells (in 96-well format) were fixed and permeablized then incubated sequentially with a rabbit anti-phospho-c-jun First Antibody specific for the presence of the phospho-Ser63 epitope and a donkey anti-rabbit IgG Second Antibody linked to horseradish peroxidase (HRP) for colorimetric quantitation of binding. […] Blank wells received no TNFα stimulation or compound. Additional Control wells received TNFα stimulation, but no compound.
Stock cultures of HK-2 cells (ATCC, Manassas, Va.) were grown under a 5% CO2/[…] atmosphere at 37 degrees C. in Keratinocyte-SFM medium (KSFM, Invitrogen, Grand Island, N.Y.) containing 5 μg/L epidermal growth factor and 5 mg/L bovine pituitary extract (both supplied with the medium), additionally supplemented with 10% (v/v) fetal calf serum (FCS; Invitrogen, Grand Island, N.Y.) and 1% (v/v) antibiotic-antimycotic (ABAM: Sigma, St. Louis, Mo.). For assays, cells were seeded in collagen coated 96-well polystyrene plates (BD Biosciences, Franklin Lakes, N.J.) at a density of 40,000 cells/well and cultured for 24 h in the same medium (100 μL/well) followed by a further 16-24 h in 100 μL of similar medium, but without FCS. […] Plates were then allowed to stand at room temperature for 20 minutes before being washed with 200 μL/well of PBS. (Further steps were performed immediately or the plates were stored at 4 degrees C. and the assay completed the next day.) To each well was added 100 μL 1% (v/v) TritonX-100 (Sigma, St. Louis, Mo.) in PBS followed by 20 minutes standing at room temperature, washing with 200 μL/well PBS, the addition of 100 μL/well of Quenching buffer (1% (v/v) hydrogen peroxide (Sigma, St. Louis, Mo.) and 0.1% (w/v) sodium azide (Fisher Scientific, Fair Lawn, N.J.)) in PBS and a further 20 minutes at room temperature. Plates were then washed twice with 200 μL/well of 0.1% (v/v) Tween-20 (Teknova, Hollister, Calif.) in PBS before addition of 200 μL/well of 2% BSA/0.1% Tween-20 in PBS and a further 1 hour at room temperature. […] After a further one hour, rabbit anti-phospho-c-jun-Ser63 is added directly to the solution in the Blank wells resulting in 1:250 dilution of this antibody. Plates were then placed on a slowly rotating platform at 4 degrees C. overnight. Wells were then washed thrice with 200 μL/well PBS/0.1% Tween-20. After addition of the third wash, the plates were placed on a slowly rotating platform for 15 minutes at room temperature. The final PBS/Tween20 wash was then replaced with 100 μL/well of donkey anti-rabbit HRP-labeled Second Antibody (Jackson ImmunoResearch Laboratory, West Grove, Pa.) diluted 1:10,000 in Antibody Dilution Buffer and the plates placed on a slowly rotating platform for 1 hour at room temperature. Wells were then washed four times with 200 μL/well PBS/0.1% Tween-20, including slow rotation for 30 minutes for the third wash and 10 minutes for the final wash. The wells were then washed once with 200 μL PBS without Tween-20. […] Absorbance was determined at a 450 nm wavelength using a spectrophotometer (Molecular Devices SpectraMax 250).

JNK1 = JNK1 (Homo sapiens (Human), UniProt P45983); assay: In Vitro JNK1 Assay (TR-FRET, phosphorylation of GST-c-Jun); type: biochemical
Protocol: Phosphorylation of GST-c-Jun protein (amino acid residues 1-79) was measured as JNK1 activity. […] The reaction buffer contained 50 mM HEPES, pH […], 1 mM DTT, 0.1 mM Na3VO4 and 0.2 mg/mL BSA. After 30 min. incubation at room temperature, the reaction was terminated by adding buffer containing 8 mM EDTA and a polyclonal anti-phospho-c-Jun antibody (Cell Signaling #9261L), followed by an additional incubation of 30 min. at room temperature. […] Time-resolved Fluorescence Resonance Energy Transfer (TR-FRET) signals were measured 1 hr. later on the EnVision reader (Perkin Elmer). Compound potency was assessed at 10 serially diluted concentrations. Percentage of inhibition at each concentration was determined to generate an IC50 value for each compound.

[2] = 0.2 nM active JNK1 kinase, 26.7 nM GST-c-Jun, 2 μM ATP, 30 min at room temperature

Chain of JNK1 (P45983 whole entry, the tested form may be a part): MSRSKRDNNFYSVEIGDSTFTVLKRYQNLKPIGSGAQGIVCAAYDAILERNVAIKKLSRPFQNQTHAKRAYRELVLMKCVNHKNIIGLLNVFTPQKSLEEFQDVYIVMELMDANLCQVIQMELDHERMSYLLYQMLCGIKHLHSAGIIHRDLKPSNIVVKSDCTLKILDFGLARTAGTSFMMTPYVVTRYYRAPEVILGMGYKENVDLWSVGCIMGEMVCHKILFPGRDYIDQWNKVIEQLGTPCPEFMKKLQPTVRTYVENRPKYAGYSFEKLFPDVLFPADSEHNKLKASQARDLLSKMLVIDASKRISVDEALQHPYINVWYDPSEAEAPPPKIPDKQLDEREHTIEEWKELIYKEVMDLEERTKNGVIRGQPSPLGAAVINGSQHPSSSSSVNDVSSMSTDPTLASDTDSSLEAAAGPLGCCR

SMILES	EC50 [1] [nM]	IC50 (JNK1; [2]) [nM]	IC50 (JNK1) [nM]
O=C(NCc1cn(-c2ccccc2)c2cc(Cl)ccc2c1=O)c1ccc(N2C[C@@H]3C[C@H]2CN3)nc1 (stereo in doubt) [Example I-89, trifluoroacetate]	31000		
O=C(NCc1c(-c2ncco2)n(-c2ccccc2)c2cc(Cl)ccc2c1=O)c1ccn(Cc2ccccc2)c(=O)c1 [Example I-1, 1-Benzyl-2-oxo-1,2-dihydro-pyridine-4-carboxylic acid (7-chloro-2-oxazol-2-yl-4-oxo-1-phenyl-1,4-dihydro-quinolin-3-ylmethyl)-amide]	500	1	
O=C(NCc1c(-c2ncco2)n(-c2ccccc2)c2cc(Cl)ccc2c1=O)c1ccnc(N2CCOCC2)c1 [Example I-2, N-(7-Chloro-2-oxazol-2-yl-4-oxo-1-phenyl-1,4-dihydro-quinolin-3-ylmethyl)-2-morpholin-4-yl-isonicotinamide]	2700	7	
O=C(NCc1c(-c2ncco2)n(-c2ccccc2)c2cc(Cl)ccc2c1=O)c1ccc(N2CCOCC2)nc1 [Example I-3, N-(7-Chloro-2-oxazol-2-yl-4-oxo-1-phenyl-1,4-dihydro-quinolin-3-ylmethyl)-6-morpholin-4-yl-nicotinamide]	3100	9	
NC(=O)c1ccc(C(=O)NCc2c(-c3ncco3)n(-c3ccccc3)c3cc(Cl)ccc3c2=O)cc1 [Example I-4, N-(7-Chloro-2-oxazol-2-yl-4-oxo-1-phenyl-1,4-dihydro-quinolin-3-ylmethyl)-terephthalamide]	3000	14	
O=C(NCc1c(-c2ncco2)n(-c2ccccc2)c2cc(Cl)ccc2c1=O)c1ccc(N2CCCCC2)nc1 [Example I-7, 3,4,5,6-Tetrahydro-2H-[1,2′]bipyridinyl-5′-carboxylic acid (7-chloro-2-oxazol-2-yl-4-oxo-1-phenyl-1,4-dihydro-quinolin-3-ylmethyl)-amide]	4500	14	
O=C(NCc1c(-c2ncco2)n(-c2ccccc2)c2cc(Cl)ccc2c1=O)c1ccc2c(c1)OCO2 [Example I-8, Benzo[1,3]dioxole-5-carboxylic acid (7-chloro-2-oxazol-2-yl-4-oxo-1-phenyl-1,4-dihydro-quinolin-3-ylmethyl)-amide]	4200	25	
O=C(NCc1c(-c2ncco2)n(-c2ccccc2)c2ncccc2c1=O)c1ccn(Cc2ccccc2)c(=O)c1 [Example I-9, 1-Benzyl-2-oxo-1,2-dihydro-pyridine-4-carboxylic acid (2-oxazol-2-yl-4-oxo-1-phenyl-1,4-dihydro-[1,8]naphthyridin-3-ylmethyl)-amide]	1200	4	
O=C(NCc1c(-c2ncco2)n(-c2ccccc2)c2ncccc2c1=O)c1ccc(N2CCOCC2)nc1 [Example I-10, 6-Morpholin-4-yl-N-(2-oxazol-2-yl-4-oxo-1-phenyl-1,4-dihydro-[1,8]naphthyridin-3-ylmethyl)-nicotinamide]	5200	29	
Cn1cc(C(=O)NCc2c(-c3ncco3)n(-c3ccccc3)c3ncccc3c2=O)cn1 [Example I-11, 1-Methyl-1H-pyrazole-4-carboxylic acid (2-oxazol-2-yl-4-oxo-1-phenyl-1,4-dihydro-[1,8]naphthyridin-3-ylmethyl)-amide]	15000	47	
O=C(NCc1c(-c2ncco2)n(-c2ccccc2)c2ncccc2c1=O)c1ccc(N2CCC(CO)CC2)nc1 [Example I-12, 4-Hydroxymethyl-3,4,5,6-tetrahydro-2H-[1,2′]bipyridinyl-5′-carboxylic acid (2-oxazol-2-yl-4-oxo-1-phenyl-1,4-dihydro-[1,8]naphthyridin-3-ylmethyl)-amide]	2500	7	
O=C(NCc1cn(-c2ccccc2F)c2cc(F)ccc2c1=O)c1cnn(-c2ccccc2)c1 [Example I-103, 1-Phenyl-1H-pyrazole-4-carboxylic acid [7-fluoro-1-(2-fluoro-phenyl)-4-oxo-1,4-dihydro-quinolin-3-ylmethyl]-amide]	12000		
COC(=O)c1c(CNC(=O)c2cnc(N3CCOCC3)s2)c(=O)c2ccc(Cl)cc2n1-c1ccccc1 [Example I-116, Chloro-3-{[(2-morpholin-4-yl-thiazole-5-carbonyl)-amino]-methyl}-4-oxo-1-phenyl-1,4-dihydro-quinoline-2-carboxylic acid methyl ester]	2200		
O=C(NCc1cn(-c2ccccc2)c2cc(Cl)ccc2c1=O)N1CCOCC1 [Example I-200, Morpholine-4-carboxylic acid (7-chloro-4-oxo-1-phenyl-1,4-dihydro-quinolin-3-ylmethyl)-amide]		850	
O=C(NCc1cn(-c2ccccc2)c2cc(Cl)ccc2c1=O)Nc1ccccc1 [Example I-201, 1-(7-Chloro-4-oxo-1-phenyl-1,4-dihydro-quinolin-3-ylmethyl)-3-phenyl-urea]		550	
CN(C)c1ccc(NC(=O)NCc2cn(-c3ccccc3)c3cc(Cl)ccc3c2=O)cc1 [Example I-202, 1-(7-Chloro-4-oxo-1-phenyl-1,4-dihydro-quinolin-3-ylmethyl)-3-(4-dimethylamino-phenyl)-urea]		630	
COc1ccc(NC(=O)NCc2cn(-c3ccccc3)c3cc(Cl)ccc3c2=O)cc1 [Example I-203, 1-(7-Chloro-4-oxo-1-phenyl-1,4-dihydro-quinolin-3-ylmethyl)-3-(4-methoxy-phenyl)-urea]		650	
O=C(NCc1cn(-c2ccccc2)c2cc(Cl)ccc2c1=O)Nc1ccc(OC(F)(F)F)cc1 [Example I-205, 1-(4-trifluoromethoxy-phenyl)-3-(7-chloro-4-oxo-1-phenyl-1,4-dihydro-quinolin-3-yl-methyl)-urea]		1800	
COC(=O)c1ccc(NC(=O)NCc2cn(-c3ccccc3)c3cc(Cl)ccc3c2=O)cc1 [Example I-206, 4-[3-(7-Chloro-4-oxo-1-phenyl-1,4-dihydro-quinolin-3-ylmethyl)-ureido]-benzoic acid methyl ester]		2700	
COC(=O)c1c(CNc2nccc3ccccc23)c(=O)c2ccc(Cl)cc2n1-c1ccccc1 [Example I-207, 7-Chloro-3-(isoquinolin-1-ylaminomethyl)-4-oxo-1-phenyl-1,4-dihydro-quinoline-2-carboxylic acid methyl ester]		110	
COC(=O)c1c(CNC(=O)N2CCOCC2)c(=O)c2ccc(Cl)cc2n1-c1ccccc1 [Example I-209, 7-Chloro-3-{[(morpholine-4-carbonyl)-amino]-methyl}-4-oxo-1-phenyl-1,4-dihydro-quinoline-2-carboxylic acid methyl ester]		150	
COC(=O)c1c(CNC(=O)Oc2ccccc2)c(=O)c2ccc(Cl)cc2n1-c1ccccc1 [Example I-210, 7-Chloro-4-oxo-3-(phenoxycarbonylamino-methyl)-1-phenyl-1,4-dihydro-quinoline-2-carboxylic acid methyl ester]			1100
COC(=O)c1c(CN(C)C(=O)c2ccc(S(C)(=O)=O)cc2)c(=O)c2ccc(Cl)cc2n1-c1ccccc1 [Example I-211, 7-Chloro-3-{[(4-methanesulfonyl-benzoyl)-methyl-amino]-methyl}-4-oxo-1-phenyl-1,4-dihydro-quinoline-2-carboxylic acid methyl ester]		920	
